This is an account of results in PubChem BioAssay (NCI).

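96-well plates; 48 h exposure; 5 concentrations. Endpoints by linear interpolation between flanking doses. Not reached: highest tested concentration assigned. TGI is the concentration that stops growth completely.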

Among the test systems are UO-31 renal; SF-268 CNS; SK-MEL-28 melanoma; HOP-92 NSCLC; PC-3 prostate; T-47D breast; HS 578T breast; A549 NSCLC; IGROV1 ovarian; HT29 colon; KM12 colon; ACHN renal; SNB-19 CNS; SK-MEL-5 melanoma; OVCAR-8 ovarian; COLO 205 colon; OVCAR-3 ovarian; SR leukemia; NCI/ADR-RES ovarian.
Holding throughout (assay): inhibition of tumour cell growth, NCI panel, 48 h

On to `Cc1ccc2nc3ccccc3c(C3C4C(=O)N(c5ccc(Br)cc5Cl)C(=O)C4ON3C(C(N)=O)c3ccccc3)c2c1` (stereo unspecified), for which the TGI in the assay on UO-31 renal is 12.9 µM; in the assay on SF-268 CNS it was more than 25 µM; in the assay on SK-MEL-28 melanoma, more than 25 µM; in the assay with HOP-92 NSCLC, more than 25 µM; in the assay with PC-3 prostate, more than 25 µM; with T-47D breast, more than 25 µM. For the same compound, the TGI is more than 25 µM in the assay on HS 578T breast; more than 25 µM with A549 NSCLC; more than 25 µM in the assay on IGROV1 ovarian; more than 25 µM in the assay with HT29 colon; more than 25 µM with KM12 colon; 15.3 µM with ACHN renal. In addition, the TGI in the assay with SNB-19 CNS, with SK-MEL-5 melanoma, in the assay on OVCAR-8 ovarian, in the assay on COLO 205 colon, in the assay with OVCAR-3 ovarian and in the assay with SR leukemia was more than 25 µM each time.

As for `O=C(CSc1nnc(Cc2ccccc2)o1)Nc1cccc([N+](=O)[O-])c1`, the TGI in the assay with UO-31 renal, with SF-268 CNS, in the assay with SK-MEL-28 melanoma, in the assay with A549 NSCLC, with IGROV1 ovarian and with HT29 colon was more than 100 µM throughout. Further, the TGI in the assay with KM12 colon, in the assay with ACHN renal, with SK-MEL-5 melanoma, in the assay with OVCAR-8 ovarian, in the assay on COLO 205 colon and in the assay with OVCAR-3 ovarian was more than 100 µM throughout.

Take `COc1cc2c(c(OC)c1OC)-c1ccc(SC)c(=O)cc1C(CC(=O)Oc1ccc([N+](=O)[O-])cc1)C2` (stereo unspecified): the TGI in the assay on UO-31 renal is more than 100 µM; with SF-268 CNS it was 31.4 µM; with SK-MEL-28 melanoma, more than 56.6 µM; in the assay on HOP-92 NSCLC, more than 48.3 µM; in the assay with A549 NSCLC, more than 100 µM; in the assay with IGROV1 ovarian, more than 49.2 µM. Further, the TGI with HT29 colon is 0.099 µM; in the assay with KM12 colon, 0.489 µM; with ACHN renal it was more than 40.5 µM; in the assay on SNB-19 CNS, more than 31.8 µM; in the assay with SK-MEL-5 melanoma, 13.9 µM; in the assay with OVCAR-8 ovarian, 5.08 µM. The figures for the TGI in the assay on COLO 205 colon, with OVCAR-3 ovarian and in the assay on SR leukemia were 1.09 µM, 0.905 µM and more than 38 µM, respectively.

As to `CCOC(=O)[C@H]1Nc2ccc(C)cc2C2c3ccccc3CC21` (stereo partly specified), the TGI in the assay with UO-31 renal, in the assay with SF-268 CNS, in the assay with SK-MEL-28 melanoma, in the assay on A549 NSCLC, in the assay with IGROV1 ovarian and in the assay on HT29 colon was more than 100 µM in each case. For the same compound, the TGI in the assay with KM12 colon, in the assay on ACHN renal, in the assay with SNB-19 CNS, with SK-MEL-5 melanoma, with OVCAR-8 ovarian and with COLO 205 colon was more than 100 µM each time. Moreover, the TGI with OVCAR-3 ovarian and in the assay on SR leukemia was more than 100 µM each time.

On to `COC(=O)c1ccc2c(c1)CC1(C2)Cc2cc3c(cc2C1=O)CCC3` (stereo unspecified), for which the TGI in the assay on UO-31 renal, in the assay on SF-268 CNS, in the assay on SK-MEL-28 melanoma, with HOP-92 NSCLC, in the assay with PC-3 prostate and in the assay with T-47D breast was more than 100 µM each time. Further, the TGI with HS 578T breast is more than 100 µM; in the assay with A549 NSCLC it was more than 100 µM; in the assay with IGROV1 ovarian it was more than 100 µM; with HT29 colon, 34.7 µM; in the assay with KM12 colon it was 23.1 µM; with ACHN renal it was more than 100 µM. For the same compound, the TGI with SNB-19 CNS was more than 100 µM; in the assay with SK-MEL-5 melanoma, 21.2 µM; with OVCAR-8 ovarian, more than 100 µM; with COLO 205 colon, 38.7 µM; in the assay with NCI/ADR-RES ovarian it was 51.3 µM; with OVCAR-3 ovarian, 87.8 µM.

For the compound `CC(=O)NCc1nc(C#N)c(N)o1`, the TGI in the assay with UO-31 renal, with SF-268 CNS, with SK-MEL-28 melanoma, with HOP-92 NSCLC, with PC-3 prostate and with T-47D breast was more than 100 µM throughout. Besides, the TGI in the assay on HS 578T breast, in the assay with A549 NSCLC, in the assay with IGROV1 ovarian, with HT29 colon, in the assay on KM12 colon and in the assay on ACHN renal was more than 100 µM in each case. The TGI with SNB-19 CNS, in the assay on OVCAR-8 ovarian, with COLO 205 colon, in the assay with NCI/ADR-RES ovarian and in the assay with OVCAR-3 ovarian was more than 100 µM in each case.

With `N#[O+].O=S(=O)([O-])[O-].[NH2-].[NH2-].[NH2-].[NH2-].[NH2-].[Ru+5]`, the TGI in the assay with SF-268 CNS, with SK-MEL-28 melanoma, with HOP-92 NSCLC, with A549 NSCLC, with IGROV1 ovarian and in the assay with HT29 colon was more than 100 µM each time. Moreover, the TGI with KM12 colon, in the assay with ACHN renal, in the assay on SK-MEL-5 melanoma, with OVCAR-8 ovarian, with COLO 205 colon and in the assay on OVCAR-3 ovarian was more than 100 µM throughout. Moreover, the TGI in the assay on SR leukemia is more than 100 µM.

Take `O=[N+]([O-])C(C(Cl)=C(Cl)Cl)=C(N1CCOCC1)N1CCOCC1`: the TGI in the assay with UO-31 renal, in the assay with SF-268 CNS, in the assay on SK-MEL-28 melanoma, in the assay on PC-3 prostate, with T-47D breast and with HS 578T breast was more than 100 µM in each case. Besides, the TGI with A549 NSCLC, in the assay on IGROV1 ovarian, with HT29 colon, in the assay on KM12 colon, in the assay on ACHN renal and with SNB-19 CNS was more than 100 µM in each case. Also, the TGI with SK-MEL-5 melanoma, in the assay on OVCAR-8 ovarian, with COLO 205 colon and in the assay on OVCAR-3 ovarian was more than 100 µM throughout.

`O=P(c1ccccc1)(c1ccccc1)C(NCc1ccccc1)c1ccc(F)cc1` (stereo unspecified): the TGI was found to be 25.3 µM with UO-31 renal; 37.4 µM in the assay with SF-268 CNS; 28.9 µM in the assay on SK-MEL-28 melanoma; 26.6 µM in the assay with HOP-92 NSCLC; 60.7 µM with T-47D breast; 98.2 µM in the assay on HS 578T breast. Besides, the TGI was 30.2 µM in the assay with A549 NSCLC; 33.4 µM with IGROV1 ovarian; 26.5 µM with HT29 colon; 29.1 µM in the assay with KM12 colon; 27.5 µM with ACHN renal; 33.5 µM with SNB-19 CNS. The TGI was 29.6 µM with SK-MEL-5 melanoma; 40.6 µM in the assay on OVCAR-8 ovarian; 29.7 µM with COLO 205 colon; 41.2 µM in the assay on NCI/ADR-RES ovarian; 27.6 µM with OVCAR-3 ovarian; 49.5 µM in the assay on SR leukemia.
